Publication PMC8137473, “Preclinical trial of a MAP4K4 inhibitor to reduce infarct size in the pig: does cardioprotection in human stem cell-derived myocytes predict success in large mammals?” (Basic Research in Cardiology, 2021)

Test system: porcine model of MI
Experiment: efficacy study, LAD occlusion 60 min / reperfusion 24 h: infarct size, no-reflow, area at risk
Type: in vivo, swine
Experimental: Next, an efficacy study was performed, in adherence to published guidelines for rigor and reproducibility, to evaluate the postulated benefit of DMX-10001 in a large-mammal model of MI. Briefly, 36 closed-chest swine (41 ± 2 kg) were subjected to regional ischemia by occluding the left anterior descending coronary artery (LAD) distal to the first diagonal branch for 60 min, followed by 24 h of reperfusion. Treatment with DMX-10001 (60 mg/kg/h for 0.5 h, followed by 17 mg/kg/h for 23.5 h) versus the vehicle was initiated 20 min prior to reperfusion and continued for 1 day. After 2 h of reperfusion, animals were allowed to recover from anesthesia. At 24 h of reperfusion, the infarct area (IA), area of no-reflow (NR), and area at ischemic risk (AAR) were determined. Transthoracic short-axis B-mode echocardiograms and measurements of LV pressure and its first derivative (LVdP/dt) were obtained at baseline and at 24 h of reperfusion. LV pressure–volume measurements were obtained at 24 h of reperfusion. Heart-type fatty acid binding protein (hFABP) release was measured, as a biomarker that correlates with IS and NR in swine at least as well as cardiac troponin I [30].
The LAD was catheterized with a standard clinical guiding catheter (JL3.5, 6F, Medtronic, Minneapolis, MN), and quantitative coronary angiography (CAAS, PIE Medical, Maastricht, The Netherlands) was performed following 2 mg isosorbidedinitrate (Cedocard, Nycomed, Hoofddorp, The Netherlands) and using iodixanol as contrast agent (Visipaque™, GE Healthcare BV, Eindhoven, The Netherlands). Then, an over-the-wire coronary angioplasty balloon (Sprinter OTW, 2–3 mm × 6 mm, Medtronic, Minneapolis, MN) on a standard guide wire (0.014″, 180 cm, ASAHI SION blue, ASAHI Intecc co Ltd, Aichi, Japan) was carefully positioned under fluoroscopic guidance distal to the first diagonal branch. Following balloon inflation, total coronary occlusion was confirmed by angiography (at baseline and at 58 min of occlusion) and by ECG changes. Animals that developed VF during the protocol were defibrillated within 25 ± 10 s. After 1 h of occlusion, the coronary balloon was deflated to establish reperfusion, which was angiographically confirmed to ensure an adequate coronary blood flow to the entire LAD perfusion territory. Heart rate, aortic blood pressure, and ECG were monitored until 2 h of reperfusion.
Twenty min before the onset of reperfusion, an initial rapid administration was started (30 min infusion, 60 mg/kg/h, Alaris CC, Cardinal Health, Role, Switzerland), followed after 10 min of reperfusion by a lower sustained dose (23.5 h infusion, 17 mg/kg/h, Myfuser, CANOX medical Device Srl, Capurso, Italy). The dosing regimen was determined by iterative computer modeling (XenoGesis Ltd, Alderley Park, UK) (Fig. 1b), based on prior dose-finding studies in pigs (data not shown).
After completing the post-infarct LV functional measurements on day two, the LAD was again catheterized, as before. The over-the-wire coronary angioplasty balloon and guide wire were positioned under fluoroscopic guidance at the same position, using anatomic landmarks (distance from sidebranches) visualized by coronary angiography. Through the lumen of the balloon, 5 ml of 4% (w/v) thioflavin-S solution (Sigma, Zwijndrecht, The Netherlands) were injected, allowing the area of no-reflow within the AAR to be measured later histologically. The balloon was re-inflated to re-occlude the LAD and a sternotomy was performed. Next, a bolus of 40 ml of a 15% (w/v) Evans Blue solution was injected into the left atrium for negative staining of the AAR. To facilitate excision, the heart was arrested via induction of VF by gently touching the LV epicardium with a 9 V battery. The LV was isolated and sectioned into 5 transverse slices. The AAR and area of no-reflow (NR), visualized using UV light, were quantified in all sections. […]

Structure (SMILES): COCCOc1ccc(-c2cn(-c3ccccc3)c3ncn(COP(=O)(O)O)c(=O)c23)cc1 [DMX-10001]
- IS/AAR (excluding one statistical outlier, n = 11): 82.1 ± 8.6%
- difference in IS/AAR vs the vehicle control (excluding one statistical outlier, P = 0.0562): 7%
- effect on NR, NR/AAR or NR/IS (full cohort): no significant effect
- IS/AAR (full cohort, n = 12): 76.3 ± 21.6%
- extent of infarction (IS) (full cohort, n = 12): 18.2 ± 5.8 g
- extent of infarction (IS) as % of LV mass (full cohort, n = 12): 17.2 ± 5.7%
- reduction of the extent of infarction in grams or % of LV mass vs vehicle (full cohort, n = 12 per group): 27%
- reduction in mean IS/AAR vs vehicle (full cohort, not significant (P = 0.0817)): 13%
- IS or no-reflow corrected for the area at ischemic risk (in vivo): No significant reduction
- ANCOVA: slopes of IS and NR as a function of AAR, NR as a function of IS (n = 11): No significant differences
